From PubChem BioAssay (NCI)
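A five-concentration, 48-hour dose response in 96-well plates underlies each endpoint, interpolated linearly between surrounding concentrations. GI50 is the concentration that inhibits growth by half. TGI marks complete inhibition of growth.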

system: MDA-MB-231 breast; assay: NCI-60 cell line screen, 48 h

SMILES | GI50 [µM] | TGI [µM]
Nc1nc(N)c2nc(CNc3ccc(C(=O)NC(CC(=O)O)C(=O)O)cc3)cnc2n1 (centres undefined) | > 100 | > 100
CC(=O)OC[C@]12CC[C@@H](C(=O)CBr)[C@@H]1[C@H]1CC[C@@H]3[C@@]4(C)CCCNC(C)(C)[C@@H]4CC[C@@]3(C)[C@]1(C)CC2 | 3.72 | 17.9
COc1cc2c3c(n(CCCCN)c(=O)c2cc1OC)-c1cc2c(cc1C3=O)OCO2 | 0.442 | 1.56
N#CCCN(CCCN(CCCN(C(=O)Nc1ccccc1)c1ccccc1)C(=O)Nc1ccccc1)C(=O)Nc1ccccc1 | > 100 | > 100
C=CCC1(O)c2ccccc2C(=O)c2c(NCCN(CC(=O)OCC)CC(=O)OCC)cccc21 (centres undefined) | > 100 | > 100
COc1cccc(-n2nc(C)c3c(N/N=C(\C)c4ccncc4)ncnc32)c1 | 8.4 | > 25
Cc1ccc(-c2nc(C#N)c(S(=O)(=O)n3nc(C)cc3N)o2)cc1 | 2.42 | 6.31
CCn1cnc(C[C@H](NC(=O)[C@@H](NC(=O)Nc2cc(C(F)(F)F)cc(C(F)(F)F)c2)C(C)C)C(=O)OC)c1 | 1.9 | 4.11
O=C(Nc1cccc(-n2cc(-c3ccncc3)c(-c3ccc(Cl)c(O)c3)n2)c1)c1ccc(N2CCOCC2)c(C(F)(F)F)c1 | 0.975 | 15.6
COc1ccc(/C=C/C(=O)c2ccc(O)c(CN3CCN(c4cc5c(cc4F)c(=O)c(C(=O)O)cn5C4CC4)CC3)c2)cc1 | 2.19 | 13
NC(=O)c1ccc(I)c(N=O)c1 | 35.5 | > 100
COC(=O)c1ccccc1OCc1cc(=O)oc2ccc(C)cc12 |  | > 100
O=[N+]([O-])c1ccc2c(c1)Cc1cc(N=Cc3ccc4c(c3)OCO4)ccc1-2 |  | > 100

system: OVCAR-4 ovarian; assay: NCI-60 cell line screen, 48 h

SMILES | GI50 [µM] | TGI [µM]
Nc1nc(N)c2nc(CNc3ccc(C(=O)NC(CC(=O)O)C(=O)O)cc3)cnc2n1 (centres undefined) | > 100 | > 100
CC(=O)OC[C@]12CC[C@@H](C(=O)CBr)[C@@H]1[C@H]1CC[C@@H]3[C@@]4(C)CCCNC(C)(C)[C@@H]4CC[C@@]3(C)[C@]1(C)CC2 | 3.89 | 18.9
COc1cc2c3c(n(CCCCN)c(=O)c2cc1OC)-c1cc2c(cc1C3=O)OCO2 | 0.719 | 4.66
N#CCCN(CCCN(CCCN(C(=O)Nc1ccccc1)c1ccccc1)C(=O)Nc1ccccc1)C(=O)Nc1ccccc1 |  | > 100
C=CCC1(O)c2ccccc2C(=O)c2c(NCCN(CC(=O)OCC)CC(=O)OCC)cccc21 (centres undefined) | > 100 | > 100
COc1cccc(-n2nc(C)c3c(N/N=C(\C)c4ccncc4)ncnc32)c1 | > 25 | > 25
Cc1ccc(-c2nc(C#N)c(S(=O)(=O)n3nc(C)cc3N)o2)cc1 | 4.26 | 20.7
CCn1cnc(C[C@H](NC(=O)[C@@H](NC(=O)Nc2cc(C(F)(F)F)cc(C(F)(F)F)c2)C(C)C)C(=O)OC)c1 | 1.83 | 3.54
O=C(Nc1cccc(-n2cc(-c3ccncc3)c(-c3ccc(Cl)c(O)c3)n2)c1)c1ccc(N2CCOCC2)c(C(F)(F)F)c1 | 39.2 | > 50
COc1ccc(/C=C/C(=O)c2ccc(O)c(CN3CCN(c4cc5c(cc4F)c(=O)c(C(=O)O)cn5C4CC4)CC3)c2)cc1 | 54.9 | > 100
NC(=O)c1ccc(I)c(N=O)c1 | 17.7 | 43.5
COC(=O)c1ccccc1OCc1cc(=O)oc2ccc(C)cc12 |  | > 63.4
O=[N+]([O-])c1ccc2c(c1)Cc1cc(N=Cc3ccc4c(c3)OCO4)ccc1-2 |  | > 100

system: OVCAR-5 ovarian; assay: NCI-60 cell line screen, 48 h

SMILES | GI50 [µM] | TGI [µM]
Nc1nc(N)c2nc(CNc3ccc(C(=O)NC(CC(=O)O)C(=O)O)cc3)cnc2n1 (centres undefined) | 16.3 | > 100
CC(=O)OC[C@]12CC[C@@H](C(=O)CBr)[C@@H]1[C@H]1CC[C@@H]3[C@@]4(C)CCCNC(C)(C)[C@@H]4CC[C@@]3(C)[C@]1(C)CC2 | 13.5 | 26.6
COc1cc2c3c(n(CCCCN)c(=O)c2cc1OC)-c1cc2c(cc1C3=O)OCO2 | 4.97 | 12.3
N#CCCN(CCCN(CCCN(C(=O)Nc1ccccc1)c1ccccc1)C(=O)Nc1ccccc1)C(=O)Nc1ccccc1 | > 100 | > 100
C=CCC1(O)c2ccccc2C(=O)c2c(NCCN(CC(=O)OCC)CC(=O)OCC)cccc21 (centres undefined) | > 100 | > 100
COc1cccc(-n2nc(C)c3c(N/N=C(\C)c4ccncc4)ncnc32)c1 | > 25 | > 25
Cc1ccc(-c2nc(C#N)c(S(=O)(=O)n3nc(C)cc3N)o2)cc1 | 12.4 | 27.5
CCn1cnc(C[C@H](NC(=O)[C@@H](NC(=O)Nc2cc(C(F)(F)F)cc(C(F)(F)F)c2)C(C)C)C(=O)OC)c1 | 4.98 | > 10
O=C(Nc1cccc(-n2cc(-c3ccncc3)c(-c3ccc(Cl)c(O)c3)n2)c1)c1ccc(N2CCOCC2)c(C(F)(F)F)c1 | > 50 | > 50
COc1ccc(/C=C/C(=O)c2ccc(O)c(CN3CCN(c4cc5c(cc4F)c(=O)c(C(=O)O)cn5C4CC4)CC3)c2)cc1 | 4.61 | > 100
NC(=O)c1ccc(I)c(N=O)c1 | 71.9 | > 100
COC(=O)c1ccccc1OCc1cc(=O)oc2ccc(C)cc12 |  | > 100
O=[N+]([O-])c1ccc2c(c1)Cc1cc(N=Cc3ccc4c(c3)OCO4)ccc1-2 |  | > 100

system: SF-539 CNS; assay: NCI-60 cell line screen, 48 h

SMILES | GI50 [µM] | TGI [µM]
Nc1nc(N)c2nc(CNc3ccc(C(=O)NC(CC(=O)O)C(=O)O)cc3)cnc2n1 (centres undefined) | 3.93 | > 100
CC(=O)OC[C@]12CC[C@@H](C(=O)CBr)[C@@H]1[C@H]1CC[C@@H]3[C@@]4(C)CCCNC(C)(C)[C@@H]4CC[C@@]3(C)[C@]1(C)CC2 | 2.42 | 6.57
COc1cc2c3c(n(CCCCN)c(=O)c2cc1OC)-c1cc2c(cc1C3=O)OCO2 | 0.0434 | 0.139
N#CCCN(CCCN(CCCN(C(=O)Nc1ccccc1)c1ccccc1)C(=O)Nc1ccccc1)C(=O)Nc1ccccc1 | > 100 | > 100
C=CCC1(O)c2ccccc2C(=O)c2c(NCCN(CC(=O)OCC)CC(=O)OCC)cccc21 (centres undefined) | > 100 | > 100
COc1cccc(-n2nc(C)c3c(N/N=C(\C)c4ccncc4)ncnc32)c1 | 22.8 | > 25
Cc1ccc(-c2nc(C#N)c(S(=O)(=O)n3nc(C)cc3N)o2)cc1 | 5.07 | 17.4
CCn1cnc(C[C@H](NC(=O)[C@@H](NC(=O)Nc2cc(C(F)(F)F)cc(C(F)(F)F)c2)C(C)C)C(=O)OC)c1 | 3.36 | > 10
O=C(Nc1cccc(-n2cc(-c3ccncc3)c(-c3ccc(Cl)c(O)c3)n2)c1)c1ccc(N2CCOCC2)c(C(F)(F)F)c1 | 1.37 | 17.3
COc1ccc(/C=C/C(=O)c2ccc(O)c(CN3CCN(c4cc5c(cc4F)c(=O)c(C(=O)O)cn5C4CC4)CC3)c2)cc1 | 0.407 | > 100
NC(=O)c1ccc(I)c(N=O)c1 | 32.3 | > 100
COC(=O)c1ccccc1OCc1cc(=O)oc2ccc(C)cc12 |  | 78.5
O=[N+]([O-])c1ccc2c(c1)Cc1cc(N=Cc3ccc4c(c3)OCO4)ccc1-2 |  | > 100

system: SK-MEL-2 melanoma; assay: NCI-60 cell line screen, 48 h

SMILES | GI50 [µM] | TGI [µM]
Nc1nc(N)c2nc(CNc3ccc(C(=O)NC(CC(=O)O)C(=O)O)cc3)cnc2n1 (centres undefined) | 0.412 | > 100
CC(=O)OC[C@]12CC[C@@H](C(=O)CBr)[C@@H]1[C@H]1CC[C@@H]3[C@@]4(C)CCCNC(C)(C)[C@@H]4CC[C@@]3(C)[C@]1(C)CC2 | 6.03 | 20.3
COc1cc2c3c(n(CCCCN)c(=O)c2cc1OC)-c1cc2c(cc1C3=O)OCO2 | 6.3 | 18
N#CCCN(CCCN(CCCN(C(=O)Nc1ccccc1)c1ccccc1)C(=O)Nc1ccccc1)C(=O)Nc1ccccc1 | > 100 | > 100
C=CCC1(O)c2ccccc2C(=O)c2c(NCCN(CC(=O)OCC)CC(=O)OCC)cccc21 (centres undefined) | > 100 | > 100
COc1cccc(-n2nc(C)c3c(N/N=C(\C)c4ccncc4)ncnc32)c1 | > 25 | > 25
Cc1ccc(-c2nc(C#N)c(S(=O)(=O)n3nc(C)cc3N)o2)cc1 | 15 | 32.3
CCn1cnc(C[C@H](NC(=O)[C@@H](NC(=O)Nc2cc(C(F)(F)F)cc(C(F)(F)F)c2)C(C)C)C(=O)OC)c1 | > 10 | > 10
O=C(Nc1cccc(-n2cc(-c3ccncc3)c(-c3ccc(Cl)c(O)c3)n2)c1)c1ccc(N2CCOCC2)c(C(F)(F)F)c1 | 2.89 | 15.3
COc1ccc(/C=C/C(=O)c2ccc(O)c(CN3CCN(c4cc5c(cc4F)c(=O)c(C(=O)O)cn5C4CC4)CC3)c2)cc1 | 2.87 | 21
NC(=O)c1ccc(I)c(N=O)c1 | 31.3 | 87.8
COC(=O)c1ccccc1OCc1cc(=O)oc2ccc(C)cc12 |  | > 85.4
O=[N+]([O-])c1ccc2c(c1)Cc1cc(N=Cc3ccc4c(c3)OCO4)ccc1-2 |  | > 100
